According to ChEMBL document CHEMBL4190267, “Discovery of potent molecular chimera (CM358) to treat human metastatic melanoma” (Eur J Med Chem, 2017):
Calls of active or inactive are those of the source. The calls are words filed in the database; no cut-off is given here.

Tests used:
PC-3 [1] = assay: Growth inhibition of human PC3 cells preincubated for 6 hrs followed compound washout measured after 24 hrs by XTT assay; format: functional
MDA-MB-231 [2] = assay: Growth inhibition of human MDA-MB-231 cells preincubated for 6 hrs followed compound washout measured after 24 hrs by XTT assay; format: functional
WM 266-4 [3] = assay: Growth inhibition of human WM266.4 cells preincubated for 6 hrs followed compound washout measured after 24 hrs by XTT assay; format: functional
A 172 [4] = assay: Growth inhibition of human A172 cells preincubated for 6 hrs followed compound washout measured after 24 hrs by XTT assay; format: functional
NCI-H1299 [5] = assay: Growth inhibition of human NCI-H1299 cells preincubated for 6 hrs followed compound washout measured after 24 hrs by XTT assay; format: functional
WM 266-4 [6] = assay: Growth inhibition of human WM266.4 cells at 25 uM after 24 hrs by XTT assay; format: functional, cell-based
PC-3 [7] = assay: Growth inhibition of human PC3 cells up to 25 uM cotreated with camptothecin measured after 24 hrs by XTT assay; format: functional, cell-based
MDA-MB-231 [8] = assay: Growth inhibition of human MDA-MB-231 cells up to 25 uM cotreated with camptothecin measured after 24 hrs by XTT assay; format: functional, cell-based
WM 266-4 [9] = assay: Growth inhibition of human WM266.4 cells up to 25 uM cotreated with camptothecin measured after 24 hrs by XTT assay; format: functional, cell-based
A 172 [10] = assay: Growth inhibition of human A172 cells up to 25 uM cotreated with camptothecin measured after 24 hrs by XTT assay; format: functional, cell-based
NCI-H1299 [11] = assay: Growth inhibition of human NCI-H1299 cells up to 25 uM cotreated with camptothecin measured after 24 hrs by XTT assay; format: functional, cell-based
PC-3 [12] = assay: Growth inhibition of human PC3 cells up to 25 uM cotreated with colchicine measured after 24 hrs by XTT assay; format: functional, cell-based
MDA-MB-231 [13] = assay: Growth inhibition of human MDA-MB-231 cells up to 25 uM cotreated with colchicine measured after 24 hrs by XTT assay; format: functional, cell-based
WM 266-4 [14] = assay: Growth inhibition of human WM266.4 cells up to 25 uM cotreated with colchicine measured after 24 hrs by XTT assay; format: functional, cell-based
A 172 [15] = assay: Growth inhibition of human A172 cells up to 25 uM cotreated with colchicine measured after 24 hrs by XTT assay; format: functional, cell-based
NCI-H1299 [16] = assay: Growth inhibition of human NCI-H1299 cells up to 25 uM cotreated with colchicine measured after 24 hrs by XTT assay; format: functional, cell-based

In the case of `O=C(CCCc1ccc(N(CCCl)CCCl)cc1)Nc1ccn([C@@H]2O[C@H](CO)[C@@H](O)[C@@H]2O)c(=O)n1`, the “growth inhibition (GI)” value (PC-3 [1]) is reported as “inactive”, the “growth inhibition (GI)” value (MDA-MB-231 [2]) is reported as “inactive” and the “growth inhibition (GI)” value (WM 266-4 [3]) is reported as “inactive”. The “growth inhibition (GI)” value (A 172 [4]) was “inactive” and the “growth inhibition (GI)” value (NCI-H1299 [5]) was “inactive”.

With `CC(=O)Nc1cc2c3c(cccc3c1)C(=O)N(CCN(C)C)C2=O` the “growth inhibition (GI)” value (WM 266-4 [6]) was “inactive”.

For `COc1cc2c(c(OC)c1OC)-c1ccc(OC)c(=O)cc1[C@@H](NC(C)=O)CC2`, the “growth inhibition (GI)” value (PC-3 [7]) was “Active”, the “growth inhibition (GI)” value (MDA-MB-231 [8]) was “Active” and the “growth inhibition (GI)” value (WM 266-4 [9]) was “Active”. The “growth inhibition (GI)” value (A 172 [10]) was “Active” and the “growth inhibition (GI)” value (NCI-H1299 [11]) was “Active”.

With `CC[C@@]1(O)C(=O)OCc2c1cc1n(c2=O)Cc2cc3ccccc3nc2-1` the “growth inhibition (GI)” value (PC-3 [12]) was “Active”, the “growth inhibition (GI)” value (MDA-MB-231 [13]) was “Active” and the “growth inhibition (GI)” value (WM 266-4 [14]) was “Active”. The “growth inhibition (GI)” value (A 172 [15]) was “Active” and the “growth inhibition (GI)” value (NCI-H1299 [16]) was “Active”.
